“And” between values parts separate entries of the source, which are not always exact repeats. Identical values can stand only once. Numbers after ± are expanded uncertainties.
Details: Fluid (supercritical or subcritical phases), Hot wire method

[HH] [hydrogen]
Details | thermal conductivity
323.19 K, 5191 kPa | 0.2032 ± 0.0045 W/m/K
323.19 K, 5193 kPa | 0.2032 ± 0.0045 W/m/K
323.19 K, 10094 kPa | 0.2067 ± 0.0046 W/m/K
323.19 K, 10100 kPa | 0.2065 ± 0.0046 W/m/K
323.2 K, 261 kPa | 0.1971 ± 0.0044 W/m/K and 0.197 ± 0.0044 W/m/K
323.2 K, 266 kPa | 0.1971 ± 0.0044 W/m/K
323.2 K, 267 kPa | 0.1973 ± 0.0044 W/m/K
323.2 K, 5186 kPa | 0.2029 ± 0.0045 W/m/K
323.2 K, 5188 kPa | 0.2031 ± 0.0045 W/m/K
323.2 K, 5190 kPa | 0.2031 ± 0.0045 W/m/K
323.2 K, 10084 kPa | 0.2067 ± 0.0046 W/m/K
323.2 K, 10087 kPa | 0.2067 ± 0.0046 W/m/K
323.2 K, 10095 kPa | 0.2065 ± 0.0046 W/m/K
323.2 K, 19987 kPa | 0.2147 ± 0.0048 W/m/K
323.2 K, 19989 kPa | 0.2142 ± 0.0048 W/m/K
323.2 K, 19998 kPa | 0.2146 ± 0.0048 W/m/K
323.2 K, 20000 kPa | 0.2142 ± 0.0048 W/m/K
323.2 K, 39984 kPa | 0.2311 ± 0.0051 W/m/K
323.2 K, 39993 kPa | 0.2306 ± 0.0051 W/m/K
323.2 K, 40006 kPa | 0.2312 ± 0.0051 W/m/K
323.2 K, 40011 kPa | 0.2304 ± 0.0051 W/m/K
323.2 K, 40020 kPa | 0.2313 ± 0.0052 W/m/K
323.2 K, 59948 kPa | 0.2488 ± 0.0055 W/m/K
323.2 K, 59968 kPa | 0.2483 ± 0.0055 W/m/K
323.2 K, 59985 kPa | 0.2488 ± 0.0055 W/m/K
323.2 K, 59986 kPa | 0.2482 ± 0.0055 W/m/K
323.2 K, 79963 kPa | 0.2659 ± 0.0059 W/m/K
323.2 K, 79984 kPa | 0.2654 ± 0.0059 W/m/K
323.2 K, 80001 kPa | 0.2659 ± 0.0059 W/m/K
323.2 K, 80012 kPa | 0.2648 ± 0.0059 W/m/K
323.2 K, 80034 kPa | 0.2657 ± 0.0059 W/m/K
323.2 K, 97707 kPa | 0.2804 ± 0.0062 W/m/K
323.2 K, 97716 kPa | 0.282 ± 0.0063 W/m/K
323.2 K, 97745 kPa | 0.2813 ± 0.0063 W/m/K
323.2 K, 97753 kPa | 0.2816 ± 0.0063 W/m/K
323.2 K, 97762 kPa | 0.2814 ± 0.0063 W/m/K
323.21 K, 19980 kPa | 0.2147 ± 0.0048 W/m/K
323.21 K, 59935 kPa | 0.2488 ± 0.0055 W/m/K
373.22 K, 598 kPa | 0.2223 ± 0.005 W/m/K and 0.2224 ± 0.005 W/m/K
373.22 K, 599 kPa | 0.2225 ± 0.005 W/m/K
373.22 K, 5170 kPa | 0.2262 ± 0.005 W/m/K and 0.226 ± 0.005 W/m/K and 0.2261 ± 0.005 W/m/K
373.22 K, 70084 kPa | 0.2757 ± 0.0061 W/m/K and 0.2758 ± 0.0061 W/m/K
373.22 K, 70086 kPa | 0.2758 ± 0.0061 W/m/K
373.22 K, 98187 kPa | 0.2983 ± 0.0066 W/m/K
373.22 K, 98197 kPa | 0.2988 ± 0.0066 W/m/K
373.23 K, 599 kPa | 0.2224 ± 0.005 W/m/K
373.23 K, 4315 kPa | 0.2265 ± 0.005 W/m/K
373.23 K, 4316 kPa | 0.2258 ± 0.005 W/m/K and 0.2256 ± 0.005 W/m/K
373.23 K, 5171 kPa | 0.2262 ± 0.005 W/m/K
373.23 K, 10126 kPa | 0.2289 ± 0.0051 W/m/K
373.23 K, 10127 kPa | 0.2291 ± 0.0051 W/m/K
373.23 K, 10219 kPa | 0.2296 ± 0.0051 W/m/K and 0.2295 ± 0.0051 W/m/K and 0.2298 ± 0.0051 W/m/K
373.23 K, 30052 kPa | 0.2428 ± 0.0054 W/m/K and 0.2427 ± 0.0054 W/m/K
373.23 K, 30053 kPa | 0.2422 ± 0.0054 W/m/K
373.23 K, 30119 kPa | 0.2438 ± 0.0054 W/m/K
373.23 K, 30120 kPa | 0.2437 ± 0.0054 W/m/K and 0.2433 ± 0.0054 W/m/K
373.23 K, 30122 kPa | 0.2432 ± 0.0054 W/m/K
373.23 K, 49936 kPa | 0.2599 ± 0.0058 W/m/K and 0.2582 ± 0.0057 W/m/K and 0.2587 ± 0.0058 W/m/K
373.23 K, 50144 kPa | 0.2589 ± 0.0058 W/m/K and 0.2588 ± 0.0058 W/m/K
373.23 K, 69997 kPa | 0.2756 ± 0.0061 W/m/K
373.23 K, 69998 kPa | 0.2753 ± 0.0061 W/m/K and 0.2751 ± 0.0061 W/m/K
373.23 K, 97555 kPa | 0.3001 ± 0.0067 W/m/K
373.23 K, 97558 kPa | 0.2995 ± 0.0067 W/m/K
373.23 K, 97560 kPa | 0.2989 ± 0.0067 W/m/K
373.23 K, 98190 kPa | 0.2987 ± 0.0066 W/m/K
373.23 K, 98193 kPa | 0.2983 ± 0.0066 W/m/K
373.24 K, 10126 kPa | 0.2296 ± 0.0051 W/m/K
423.25 K, 5114 kPa | 0.2475 ± 0.0055 W/m/K
423.25 K, 10105 kPa | 0.2494 ± 0.0056 W/m/K and 0.2502 ± 0.0056 W/m/K
423.25 K, 30087 kPa | 0.262 ± 0.0058 W/m/K and 0.2619 ± 0.0058 W/m/K and 0.2615 ± 0.0058 W/m/K
423.25 K, 50102 kPa | 0.2764 ± 0.0062 W/m/K
423.25 K, 70147 kPa | 0.2939 ± 0.0065 W/m/K
423.25 K, 70150 kPa | 0.2927 ± 0.0065 W/m/K
423.25 K, 70155 kPa | 0.2923 ± 0.0065 W/m/K
423.25 K, 96975 kPa | 0.314 ± 0.007 W/m/K
423.25 K, 96978 kPa | 0.3137 ± 0.007 W/m/K
423.25 K, 96980 kPa | 0.3142 ± 0.007 W/m/K
423.26 K, 403 kPa | 0.2426 ± 0.0054 W/m/K
423.26 K, 404 kPa | 0.2418 ± 0.0054 W/m/K
423.26 K, 5113 kPa | 0.2477 ± 0.0055 W/m/K
423.26 K, 5114 kPa | 0.2476 ± 0.0055 W/m/K
423.26 K, 10104 kPa | 0.2499 ± 0.0056 W/m/K
423.26 K, 50100 kPa | 0.2771 ± 0.0062 W/m/K and 0.2762 ± 0.0061 W/m/K
423.27 K, 400 kPa | 0.2421 ± 0.0054 W/m/K

— the NIST ThermoML archive (doi:10.1007/s10765-011-1052-5)
